We go through three compounds from patent US5480983A, “Adenosine derivatives, preparation methods and pharmaceutical compositions containing them” (Laboratoires UPSA, priority 1992, dated 1996).

SMILES strings stand for the structures.

Experiment [1] is described as follows: Phenylbenzoquinone test (analgesic activity). Format: in vivo. As to conditions: Mus musculus, 1 h; mice; oral, one hour before phenylbenzoquinone i.p.; 5 minutes observation; read-out: Phenylbenzoquinone test 50% inhibitory dose. The procedure:
2. Phenylbenzoquinone test
The intraperitoneal injection of phenylbenzoquinone causes twisting and stretching movements in mice. Analgesics prevent or reduce this syndrome, which can be considered as the exteriorization of diffuse abdominal pain.
A 0.02% solution of phenylbenzoquinone in water is administered in a volume of 1 ml/100 g.
The products of the Examples are administered orally one hour before the injection of phenylbenzoquinone.
The stretching and twisting movements are counted for each mouse over an observation period of 5 minutes.

In experiment [2] the target is T1, rat central A2 adenosinergic receptors (Rattus norvegicus, UniProt P30543).
T1 construct: the striatum is removed from each of them (Bruns et al., 1986); from tissue; host or cells: rat striatum, homogenate (membrane preparation)
The experiment is described as follows: Binding to adenosine A2 receptors ([3H] NECA displacement). As to conditions: [3H] NECA 4 nM, n=3. On the procedure:
(§1) The affinity of the products of the Examples for the rat central A1 and A2 adenosinergic receptors is determined by the competitive technique using a radioactive ligand specifically bound either to the A1 receptors ([^3 H] PIA) or to the A2 receptors ([^3 H] NECA).
Method of studying the A2 receptors Membrane preparation
After decapitation of the animal, the brain is quickly removed and washed in cold isotonic solution. The two hemispheres are separated and the striatum is removed from each of them (Bruns et al., 1986), weighed and introduced into a polyallomer tube containing 10 volumes of cold homogenization buffer. The tissue is homogenized with an Ultra-Turrax for 30 seconds (3 times 10 seconds with 10-second intervals, 70% of the maximum speed). The ground material is centrifuged at 50,000 g (≈20,500 rpm) for 10 minutes at 4° C.
The residue obtained is resuspended in 10 volumes of homogenization buffer using a Vortex and homogenized with the Ultra-Turrax (5 to 10 seconds, 70% of the maximum speed).
Adenosine deaminase is then added at a rate of 1 U/ml, i.e. 1 μl/ml of homogenate, using a 10 μl Hamilton syringe. The homogenate treated in this way is shaken at room temperature for 30 minutes.
When the incubation is complete, the homogenate is centrifuged at 50,000 g (≈20,500 rpm) for 10 minutes at 4° C.
The residue is taken up with 5 volumes of cold homogenization buffer and passed through the Ultra-Turrax (2 times 10 seconds with a 10-second interval, 70% of the maximum speed) and the homogenate prepared in this way is finally frozen at -70° C. Competitive test
After the homogenate has been thawed at room temperature, 15 volumes of incubation buffer are added. The homogenate is shaken on a Vortex, passed through a Potter mill (6 to-and-fro movements, speed 6), diluted to 1/10 in incubation buffer and finally placed in a water bath thermostated at 4° C., with shaking, until the end of the experiment.
50 μl of [^3 H] NECA at 160 nM, i.e. 4 nM in the final reaction medium allowing for the 1/40 dilution, and 50 μl of the product of the Example at the concentrations considered (10^-5 M and 10^-7 M) are introduced into the reaction tubes. The reaction is initiated by the addition of 1 ml of homogenate and 900 μl of incubation buffer. The procedure is similar for all the compounds studied.
The tubes are shaken and incubated in a water bath at 25° C. for 60 minutes. When the incubation is complete, the contents of the tubes are filtered on Whatman GF/B paper. Each tube is washed twice with 2 ml of rinsing buffer and then the filters themselves are rinsed with 3 ml of this same buffer before being transferred to counting flasks.
10 ml of liquid scintillator (Ready Solv HP/b, Beckman) are added to all the flasks. These are shaken and stored in a refrigerator overnight. The radioactivity is determined in a liquid scintillation counter.
3 tests are performed for each concentration studied. The non-specific binding of the [^3 H] NECA is determined by measuring the amount of radioactivity retained on the filter in the presence of 5 μM N-ethylcarboxamidoadenosine (NECA). The value of the non-specific binding is systematically subtracted from that of the tests.
(§2) The results are expressed for each product in the form of the percentage displacement (n=3) of the labeled radioligand at concentrations of 10^-5 M and 10^-7 M.

Experiment [3] has as its target T2, rat central A1 adenosinergic receptors (Rattus norvegicus, UniProt P25099).
T2 construct: After the animal has been sacrificed by decapitation, the brain is quickly removed and washed in cold isotonic solution; from tissue; host or cells: rat brain, membrane preparation from the two hemispheres
T2 sequence (P25099 1-326): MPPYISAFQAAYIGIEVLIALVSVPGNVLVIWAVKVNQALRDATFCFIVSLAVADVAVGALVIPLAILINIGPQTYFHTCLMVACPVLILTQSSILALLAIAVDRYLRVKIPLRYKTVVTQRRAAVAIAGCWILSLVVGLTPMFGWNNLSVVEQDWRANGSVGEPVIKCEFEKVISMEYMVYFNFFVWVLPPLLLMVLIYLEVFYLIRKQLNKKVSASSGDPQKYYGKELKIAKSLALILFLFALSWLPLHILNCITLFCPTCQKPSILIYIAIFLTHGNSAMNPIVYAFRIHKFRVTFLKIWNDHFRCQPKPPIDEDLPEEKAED
The experiment is described as follows: Binding to adenosine A1 receptors ([3H] PIA displacement). The following applies: [3H] PIA 2.5 nM, n=3. The procedure:
as §1
After the animal has been sacrificed by decapitation, the brain is quickly removed and washed in cold isotonic solution. The two hemispheres are separated and weighed and each of them is introduced into a polyallomer tube containing 25 volumes of cold homogenization buffer. Homogenization is effected using an Ultra-Turrax for 30 seconds (3 times 10 seconds with 10-second intervals, 70% of the maximum speed). The ground material obtained is centrifuged at 1000 g (≈3000 rpm) for 10 minutes at 4° C.
The supernatant is centrifuged again at 48,000 g (≈20,000 rpm) for 20 minutes at 4° C.
When this step is complete, the residue is taken up with 4 volumes of homogenization buffer, resuspended using a Vortex and homogenized with the Ultra-Turrax. Adenosine deaminase is then added at a rate of 1 U/ml, i.e. 1 μl/ml of homogenate, using a 10 μl Hamilton syringe.
After this treatment, the homogenate is shaken for 30 minutes at room temperature and then centrifuged at […] (≈20,000 rpm) for 30 minutes at 4° C.
The residue obtained is resuspended in 10 volumes of homogenization buffer and passed through the Ultra-Turrax for 20 seconds (2 times 10 seconds with a 10-second interval, 70% of the maximum speed).
The homogenate prepared in this way is used for the competitive tests. It is kept at 4° C. if the studies take place the same day, or stored at -20° C. in the form of 10 ml aliquots.
After the homogenate has been thawed at room temperature, it is passed through a Potter mill (6 manual to-and-fro movements, speed 6), diluted to 2/5 in incubation buffer and placed in a water bath thermostated at 4° C., with shaking, until the end of the experiment.
50 μl of [^3 H] PIA at 100 nM, i.e. 2.5 nM in the final reaction medium allowing for the 1/40 dilution, and 50 μl of the product of the Example at the concentrations considered ([…] and 10^-7 M) are introduced into the reaction tubes. The reaction is initiated by the addition of 1 ml of homogenate and 900 μl of incubation buffer. The procedure is identical for all the […] studied.
The tubes are shaken and incubated in a water bath at 20° C. for 30 minutes. When the incubation is complete, the contents of the tubes are filtered on Whatman GF/B paper. Each tube is washed twice with 2 ml of rinsing buffer and then the filters themselves are rinsed with 3 ml of this same buffer.
The filters are then transferred to counting flasks and 10 ml of liquid scintillator (Ready Solv HP/b, Beckman) are added.
After they have been shaken, the flasks are stored in a refrigerator overnight and the radio-activity is then determined in a liquid scintillation counter.
3 tests are performed for each concentration studied. The non-specific binding of the [^3 H] PIA is assessed by measuring the amount of radioactivity retained on the filter in the presence of 10^-5 M phenylisopropyladenosine (PIA). The value of the non-specific binding is systematically subtracted from that of the tests.
as §2

For another experiment, the system named is platelet aggregation. As to conditions: as described in Journal of Medicinal Chemistry; cited from earlier work.
The conditions of experiment [4]: as specified in Biochemical Pharmacology; cited from earlier work.

T1 sequence (P30543 whole entry): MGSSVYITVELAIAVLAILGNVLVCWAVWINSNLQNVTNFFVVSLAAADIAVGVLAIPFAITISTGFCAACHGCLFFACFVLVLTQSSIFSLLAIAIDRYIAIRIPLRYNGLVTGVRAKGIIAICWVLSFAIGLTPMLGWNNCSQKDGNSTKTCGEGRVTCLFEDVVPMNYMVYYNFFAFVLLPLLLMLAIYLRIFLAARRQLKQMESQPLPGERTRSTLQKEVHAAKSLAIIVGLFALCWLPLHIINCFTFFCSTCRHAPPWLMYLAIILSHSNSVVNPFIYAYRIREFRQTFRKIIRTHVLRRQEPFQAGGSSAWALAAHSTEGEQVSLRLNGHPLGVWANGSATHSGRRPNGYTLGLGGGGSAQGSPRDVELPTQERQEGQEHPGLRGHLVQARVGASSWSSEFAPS

As for `CC(Cc1cn(C2CCCC2)c2ccccc12)Nc1ncnc2c1ncn2[C@@H]1O[C@H](C(=O)NC2CC2)[C@@H](O)[C@H]1O` (stereo partly drawn) [Example 93, β-D-Ribofuranuronamido-N-cyclopropyl-1-deoxy-1-[6-[[1-[1-cyclopentylindol-3-yl]-propan-2-yl]amino]-9H-purin-9-yl]], the ED50 in experiment [1] is 2 mg/kg. Moreover, the inhibition at 10 µM was found to be 85% in experiment [2] (1E-5M, read-out: % displacement of the labeled ligand, A2, 1E-5M) and 96% in experiment [3] (1E-5M, read-out: % displacement of the labeled ligand, A1, 1E-5M). The inhibition at 0.1 µM in experiment [2] (1E-7M, read-out: % displacement of the labeled ligand, A2, 1E-7M) was 22%; in experiment [3] (1E-7M, read-out: % displacement of the labeled ligand, A1, 1E-7M), 45%.
For `OC[C@H]1O[C@@H](n2cnc3c(NCCc4c[nH]c5ccccc45)ncnc32)[C@H](O)[C@@H]1O` [derivative A, N-6-[2-(indol-3-yl)ethyl]adenosine], in the experiment with platelet aggregation, the “platelet aggregation inhibiting activity” value is listed as “platelet aggregation inhibiting activity”.
On to `COc1ccc2[nH]cc(CCNc3ncnc4c3ncn4[C@@H]3O[C@H](CO)[C@@H](O)[C@H]3O)c2c1` [derivative B], for which, in experiment [4], the antilipolytic activity entry is listed as “antilipolytic activity”.
